SMILES strings stand for the structures. “And” between values parts separate entries of the source, which are not always exact repeats. Identical values can stand only once.

The first assay addresses N-type calcium channel (NTCC) (Homo sapiens, UniProt Q00975). As to the kind of experiment: FLIPR calcium mobilization assay for N-type calcium channel (differentiated IMR32 cells). The format is cell-based. The settings on record: calcium mobilization in vitro assay; N-type calcium channel block. Also noted: endogenous in cells; host or cells: IMR32 cells (ATCC), differentiated 8 days with dibutyryl cAMP and bromodeoxyuridine. How it is done:
Cell maintenance and differentiation. Unless noted otherwise, cell culture reagents were purchased from Mediatech of Herndon, Md. IMR32 cells (American Type Culture Collection, ATCC, Manassas, Va.) were routinely cultured in growth medium consisting of minimum essential medium containing 10% fetal bovine serum (FBS, Hyclone, Logan, Utah), 100 U/mL penicillin, 100 μg/mL streptomycin, 2 mM L-glutamine, 1 mM sodium pyruvate, and 1×MEM non-essential amino acids. 80-90% confluent flasks of cells were differentiated using the following differentiation medium: Growth medium plus 1 mM dibutyryl cyclic AMP (Sigma, St. Louis, Mo.), and 2.5 μM bromodeoxyuridine (Sigma). Cells were differentiated for 8 days by replacing differentiation medium every 2-3 days.
FLIPR Calcium Mobilization Assay for N-type Calcium Channel. One day prior to performing this assay, differentiated IMR32 cells were treated with 1×
CellStripper, and seeded on poly-D-lysine-coated 96-well clear-bottom black plates (Becton Dickinson, Franklin Lakes, N.J.) at 200,000 cells/well. On the day of the assay, the cell plates were washed with IMR32 buffer (127 mM NaCl, 1 mM KCl, 2 mM MgCl2, 700 μM NaH2PO4, 5 mM CaCl2, 5 mM NaHCO3, 8 mM HEPES, 10 mM glucose, pH 7.4), then pre-stimulated with KCl and loaded as follows: 0.05 mL of IMR32 buffer, 0.05 mL of each compound tested diluted in IMR32 buffer containing 20 μM nitrendipine (Sigma), and 0.1 mL KCl dissolved in IMR32 buffer, plus Fluo-4 were added (3 μM final concentration, Molecular Probes, Eugene, Oreg.). Final test compound concentrations ranged from about 846 pM to about 17 μM, final nitrendipine concentration was 5 μM, and final KCl concentration was 90 mM. After 1 hour, the cells were washed twice with 0.05 mL of each compound tested in nitrendipine-containing IMR32 buffer (no KCl or Fluo-4), and then replaced with 0.1 mL of each compound tested in nitrendipine-containing IMR32 buffer. Plates were then transferred to a Fluorimetric Imaging Plate Reader (FLIPR^96, Molecular Devices, Inc., Sunnyvale, Calif.) for assay. The FLIPR measured basal Fluo-4 fluorescence for 315 seconds (i.e., 5 minutes and 15 seconds), then added 0.1 mL KCl agonist dissolved in IMR32 buffer and measured fluorescence for another 45 seconds. Final test compound concentrations on the cells after FLIPR read ranged from about 846 pM to about 17 μM, final nitrendipine concentration was 5 μM, and final KCl concentration was 90 mM. Data were collected over the entire time course and analyzed using Excel, Graph Pad Prism (version 3.02, Graph Pad, San Diego, Calif.), or an in-house non-linear regression analysis software.
(In general: Calcium assays in cells follow changes in intracellular calcium, usually with a dye or a luminescent sensor.)
The term IC50 denotes the concentration needed to halve the response being measured. In the case of `O=C1OC2(CCN(C(=O)CC(c3ccccc3)c3ccccc3)CC2)c2ccccc21` [1,3-dihydro-1′-(3,3-diphenylpropanoyl)-spiro[isobenzofuran-1,4′-piperidine]-3-one], the IC50 came out at 2.66 µM. `COc1ccc(C(=O)N2CCC3(CC2)OC(=O)c2ccccc23)cc1C(F)(F)F` [1,3-dihydro-1′-(4-methoxy-3-trifluoromethylbenzoyl)-spiro[isobenzofuran-1,4′-piperidine]-3-one]: the IC50 is 6.94 µM and 10 to 20 µM. With `COc1ccc(C(=O)N2CCC3(CC2)OC(=O)c2ccccc23)cn1` [1,3-dihydro-1′-(6-methoxypyridin-3-ylcarbonyl)-spiro[isobenzofuran-1,4′-piperidine]-3-one], the IC50 lay in the range of 10 to 20 µM. As for `O=C(CCC(=O)N1CCC2(CC1)OC(=O)c1ccccc12)c1ccc(F)cc1` [1,3-dihydro-1′-[4-(4-fluorophenyl)-4-oxobutanoyl]-spiro[isobenzofuran-1,4′-piperidine]-3-one], the IC50 is 10 to 20 µM.

As for `CC(C)CC(C(=O)N1CCC2(CC1)OC(=O)c1ccccc12)N(C)C(=O)OC(C)(C)C` (stereo not drawn) [1,3-dihydro-1′-[4-methyl-2-(N-methyl-N-tert-butoxycarbonylamino)pentanoyl]-spiro[isobenzofuran-1,4′-piperidine]-3-one], the IC50 is 10.5 µM.

As for `O=C1OC2(CCN(C(=O)c3ccc(OCC(F)(F)F)nc3)CC2)c2ccccc21` [1,3-dihydro-1′-[6-(2,2,2-trifluoroethoxy)pyridin-3-ylcarbonyl]-spiro[isobenzofuran-1,4′-piperidine]-3-one], the IC50 was 6.47 µM. Same read-out and setting: next, `O=C1OC2(CCN(CCC(=O)N(c3ccc(F)cc3)c3ccc(F)cc3)CC2)c2ccccc21` [1,3-dihydro-1′-{2-[N,N-bis(4-fluorophenyl)aminocarbonyl]ethyl}-spiro[isobenzofuran-1,4′-piperidine]-3-one]: 1.64 µM.

On to `COc1ccc(CN(C)C(CC(C)C)C(=O)N2CCC3(CC2)OC(=O)c2ccccc23)cc1` (stereo not drawn) [1,3-dihydro-1′-{4-methyl-2-[N-methyl-N-(4-methoxybenzyl)amino]-pentanoyl}-spiro[isobenzofuran-1,4′-piperidine]-3-one], for which the IC50 worked out at 4.13 µM. For `O=C(CC(c1ccccc1)c1ccccc1)N1CCC2(C=Cc3ncccc32)CC1` [1-(3,3-diphenylpropanoyl)-spiro[piperidine-4,5′-cyclopenta[b]pyridine]], the IC50 stood at 3.52 µM. For `COc1ccc(C(=O)N2CCC3(C=Cc4ccccc43)CC2)cc1C(F)(F)F` [1-(3-trifluoromethyl-4-methoxybenzoyl)-spiro[piperidine-4,1′-indene]], the half-maximal inhibitory concentration (IC50) came to 2.29 µM. For `COc1ccc(CN2CCC3(C=Cc4ncccc43)CC2)cc1C(F)(F)F` [1-(4-methoxy-3-trifluoromethylbenzyl)-spiro[piperidine-4,5′-cyclopenta[b]pyridine]], the IC50 was in the range of 10 to 20 µM. With `O=C(N1CCc2cc(S(=O)(=O)N3CCC4(C=Cc5ncccc54)CC3)ccc2C1)C(F)(F)F` [1-(N-trifluoromethylcarbonyl-1,2,3,4-tetrahydroisoquinolin-6-yl-sulfonyl)-spiro[piperidine-4,5′-cyclopenta[b]pyridine]], the IC50 came out at 5.61 µM. Take `O=C(c1cc2ccccc2s1)N1CCC2(C=Cc3ncccc32)CC1` [1-(benzo[b]thiophen-2-ylcarbonyl)-spiro[piperidine-4,5′-cyclopenta[b]pyridine]]: the IC50 fell in the range of 10 to 20 µM. In the case of `C1=CC2(CCN(CCC=C3c4ccccc4CCc4ccccc43)CC2)c2cccnc21` [1-[2-(10,11-dihydro-5H-dibenzo[a,d]cyclohepten-5-ylmethenyl)ethyl]-spiro[piperidine-4,5′-cyclopenta[b]pyridine]], the IC50 came to 0.55 µM. `O=C1NC2(CCN(CCCC(c3ccc(F)cc3)c3ccc(F)cc3)CC2)c2ccccc21` [2,3-Dihydro-1′-[4,4-bis(4-fluorophenyl)butyl]-spiro[isoindole-1,4′-piperidine]-3-one]: the IC50 worked out at 0.34 µM.

With `O=C1OC2(CCN(CCCC(c3ccc(F)cc3)c3ccc(F)cc3)CC2)c2ccccc21` [Compound 12, 1,3-Dihydro-1′-[4,4-bis(4-fluorophenyl)butyl]-spiro[isobenzofuran-1,4′-piperidine]-3-one], the IC50 is 0.46 µM.

On to `O=C(CC=C(c1ccc(F)cc1)c1ccc(F)cc1)N1CCC2(C=Cc3ccccc32)CC1` [Compound 33, 1-[4,4-bis(4-fluorophenyl)but-3-enoyl]-spiro[piperidine-4,1′-indene]], for which the IC50 was 5.59 µM. Consider `O=C(CCC(c1ccc(F)cc1)c1ccc(F)cc1)N1CCC2(C=Cc3ccccc32)CC1` [Compound 34, 1-[4,4-bis(4-fluorophenyl)butanoyl]-spiro[piperidine-4,1′-indene]], for which the IC50 was in the range of 10 to 20 µM.

On to `O=C1OC2(CCN(CC(=O)N(c3ccc(F)cc3)c3ccc(F)cc3)CC2)c2ccccc21` [Compound 71, 1,3-Dihydro-1′-[N,N,-bis(4-fluorophenyl)aminocarbonylmethyl]-spiro[isobenzofuran-1,4′-piperidine]-3-one], for which the IC50 was determined as 4.89 µM. Consider `O=C1OC2(CCN(C(=O)CC(=O)N(c3ccc(F)cc3)c3ccc(F)cc3)CC2)c2ccccc21` [Compound 75, 1,3-Dihydro-1′-{2-[N,N,-bis(4-fluorophenyl)aminocarbonyl]ethan-1-oyl}-spiro[isobenzofuran-1,4′-piperidine]-3-one], for which the IC50 worked out at 5.79 µM.

The target in the next assay is T1, L-type calcium channel (LTCC) (Rattus norvegicus, UniProt P22002).
T1 construct: The 6.5 kb cDNA encoding the L-type calcium channel α1c subunit was cloned by PCR amplification from rat heart cDNA; expressed in transfected cells; host or cells: HEK293 (ATCC), stably transfected
T1 sequence (P22002 whole entry): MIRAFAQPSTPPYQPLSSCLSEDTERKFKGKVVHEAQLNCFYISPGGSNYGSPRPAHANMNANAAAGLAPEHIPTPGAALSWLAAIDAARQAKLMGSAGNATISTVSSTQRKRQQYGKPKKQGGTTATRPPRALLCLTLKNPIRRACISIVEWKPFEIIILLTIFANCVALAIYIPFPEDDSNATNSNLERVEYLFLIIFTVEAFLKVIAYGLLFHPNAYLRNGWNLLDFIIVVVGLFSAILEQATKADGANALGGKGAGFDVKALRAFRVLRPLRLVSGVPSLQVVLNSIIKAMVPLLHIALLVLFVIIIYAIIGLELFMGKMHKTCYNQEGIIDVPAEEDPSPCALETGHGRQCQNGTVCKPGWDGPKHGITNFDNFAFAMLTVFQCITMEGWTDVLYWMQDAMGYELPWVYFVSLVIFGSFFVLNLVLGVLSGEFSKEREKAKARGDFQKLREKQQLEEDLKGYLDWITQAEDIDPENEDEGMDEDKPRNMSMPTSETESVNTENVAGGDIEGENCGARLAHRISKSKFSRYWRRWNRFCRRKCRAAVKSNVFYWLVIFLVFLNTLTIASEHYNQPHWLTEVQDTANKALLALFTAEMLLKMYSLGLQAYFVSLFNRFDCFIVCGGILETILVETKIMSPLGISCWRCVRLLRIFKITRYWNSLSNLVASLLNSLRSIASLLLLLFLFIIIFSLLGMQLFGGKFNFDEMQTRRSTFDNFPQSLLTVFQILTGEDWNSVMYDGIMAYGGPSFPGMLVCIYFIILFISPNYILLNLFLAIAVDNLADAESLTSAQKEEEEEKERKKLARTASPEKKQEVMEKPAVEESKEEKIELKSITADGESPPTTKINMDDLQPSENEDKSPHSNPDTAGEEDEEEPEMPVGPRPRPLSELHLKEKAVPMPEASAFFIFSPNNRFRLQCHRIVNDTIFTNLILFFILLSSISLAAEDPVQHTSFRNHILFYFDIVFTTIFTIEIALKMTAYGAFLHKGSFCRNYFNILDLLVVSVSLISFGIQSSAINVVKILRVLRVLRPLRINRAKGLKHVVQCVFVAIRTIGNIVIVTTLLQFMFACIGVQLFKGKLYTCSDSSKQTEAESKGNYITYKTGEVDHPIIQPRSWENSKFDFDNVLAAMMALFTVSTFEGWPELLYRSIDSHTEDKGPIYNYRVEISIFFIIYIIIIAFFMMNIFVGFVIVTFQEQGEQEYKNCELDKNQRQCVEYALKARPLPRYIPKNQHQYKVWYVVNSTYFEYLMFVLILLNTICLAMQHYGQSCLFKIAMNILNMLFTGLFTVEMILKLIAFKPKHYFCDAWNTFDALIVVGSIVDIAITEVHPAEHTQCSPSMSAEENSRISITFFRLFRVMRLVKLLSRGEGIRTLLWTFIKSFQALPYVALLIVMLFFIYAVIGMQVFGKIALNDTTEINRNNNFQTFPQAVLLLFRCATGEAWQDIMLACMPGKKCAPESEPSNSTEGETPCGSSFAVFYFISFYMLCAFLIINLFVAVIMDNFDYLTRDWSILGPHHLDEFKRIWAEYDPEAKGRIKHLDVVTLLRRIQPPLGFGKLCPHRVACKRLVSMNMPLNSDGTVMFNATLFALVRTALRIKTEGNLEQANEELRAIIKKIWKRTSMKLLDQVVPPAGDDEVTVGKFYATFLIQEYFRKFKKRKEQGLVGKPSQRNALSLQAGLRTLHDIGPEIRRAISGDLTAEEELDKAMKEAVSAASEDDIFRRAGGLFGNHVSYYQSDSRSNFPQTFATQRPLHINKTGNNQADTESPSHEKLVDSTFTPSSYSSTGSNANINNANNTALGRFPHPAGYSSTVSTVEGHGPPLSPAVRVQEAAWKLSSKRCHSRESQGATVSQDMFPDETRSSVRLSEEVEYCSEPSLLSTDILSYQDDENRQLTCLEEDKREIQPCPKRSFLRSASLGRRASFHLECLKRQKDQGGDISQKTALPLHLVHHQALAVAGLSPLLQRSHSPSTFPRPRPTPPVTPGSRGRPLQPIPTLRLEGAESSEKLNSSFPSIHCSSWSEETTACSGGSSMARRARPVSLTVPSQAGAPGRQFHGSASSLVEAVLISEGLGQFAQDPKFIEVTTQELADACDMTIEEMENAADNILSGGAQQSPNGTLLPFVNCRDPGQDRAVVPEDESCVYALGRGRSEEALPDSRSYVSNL
T1 sequence (P54290 25-944 partner limits assumed): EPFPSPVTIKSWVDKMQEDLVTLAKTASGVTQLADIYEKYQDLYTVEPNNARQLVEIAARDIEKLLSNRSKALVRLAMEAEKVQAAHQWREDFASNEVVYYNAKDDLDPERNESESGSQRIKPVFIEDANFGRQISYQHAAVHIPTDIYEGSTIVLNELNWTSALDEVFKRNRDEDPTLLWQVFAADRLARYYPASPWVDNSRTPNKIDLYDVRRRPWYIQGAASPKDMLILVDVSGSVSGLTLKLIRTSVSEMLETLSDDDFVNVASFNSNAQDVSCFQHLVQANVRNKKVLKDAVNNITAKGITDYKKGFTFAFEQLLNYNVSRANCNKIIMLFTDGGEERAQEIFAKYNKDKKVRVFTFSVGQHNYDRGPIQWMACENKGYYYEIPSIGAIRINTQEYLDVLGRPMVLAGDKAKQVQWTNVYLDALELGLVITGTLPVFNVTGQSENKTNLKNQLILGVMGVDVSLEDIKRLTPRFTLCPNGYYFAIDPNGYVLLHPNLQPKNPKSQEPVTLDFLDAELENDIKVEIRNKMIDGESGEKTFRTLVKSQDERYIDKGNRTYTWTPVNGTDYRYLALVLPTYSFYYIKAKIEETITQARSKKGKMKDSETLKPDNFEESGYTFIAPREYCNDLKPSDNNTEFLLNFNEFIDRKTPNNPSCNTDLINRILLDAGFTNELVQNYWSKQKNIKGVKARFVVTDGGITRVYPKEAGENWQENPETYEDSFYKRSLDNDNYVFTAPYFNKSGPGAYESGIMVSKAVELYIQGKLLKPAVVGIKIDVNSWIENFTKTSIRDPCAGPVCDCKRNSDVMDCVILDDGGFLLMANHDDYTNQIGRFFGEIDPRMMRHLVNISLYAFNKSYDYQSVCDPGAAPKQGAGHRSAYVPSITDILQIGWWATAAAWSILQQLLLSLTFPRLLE
T1 sequence (P54290 945-1091 partner limits assumed): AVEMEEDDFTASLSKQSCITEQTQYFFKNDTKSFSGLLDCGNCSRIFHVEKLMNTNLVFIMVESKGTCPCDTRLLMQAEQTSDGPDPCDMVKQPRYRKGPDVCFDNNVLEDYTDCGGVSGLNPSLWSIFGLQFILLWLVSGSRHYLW
T1 sequence (P54283 whole entry partner): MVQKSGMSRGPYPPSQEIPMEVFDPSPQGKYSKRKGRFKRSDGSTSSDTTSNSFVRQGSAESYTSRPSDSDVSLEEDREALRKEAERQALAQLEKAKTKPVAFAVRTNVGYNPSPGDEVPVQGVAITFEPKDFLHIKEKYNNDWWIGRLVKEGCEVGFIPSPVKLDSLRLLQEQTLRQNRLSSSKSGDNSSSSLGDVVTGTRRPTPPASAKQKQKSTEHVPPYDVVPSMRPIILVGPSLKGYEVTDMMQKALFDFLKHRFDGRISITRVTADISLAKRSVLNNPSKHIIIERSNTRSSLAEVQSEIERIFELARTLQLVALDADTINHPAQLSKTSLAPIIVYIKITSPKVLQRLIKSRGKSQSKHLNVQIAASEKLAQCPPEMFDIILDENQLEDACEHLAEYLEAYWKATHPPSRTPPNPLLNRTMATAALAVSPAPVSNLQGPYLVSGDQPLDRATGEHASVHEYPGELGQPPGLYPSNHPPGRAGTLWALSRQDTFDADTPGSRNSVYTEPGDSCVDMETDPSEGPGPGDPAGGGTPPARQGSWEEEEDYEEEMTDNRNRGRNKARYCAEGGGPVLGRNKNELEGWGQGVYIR
As to the kind of experiment: FLIPR calcium mobilization assay for L-type calcium channel (HEK293 cells expressing recombinant rat LTCC subunits, or alternatively differentiated A7r5 cells). In kind it is cell-based. The settings on record: calcium mobilization in vitro assay; L-type calcium channel block. How it is done: A7r5 (ATCC) cells were maintained and routinely cultured in A7r5 growth medium consisting of Dulbecco's Modified Eagles Medium containing 10% FBS, 100 U/mL penicillin, 100 μg/mL streptomycin, 4 mM L-glutamine, and 0.15% sodium bicarbonate. 80-90% confluent flasks of cells were differentiated using the following differentiation medium: A7r5 Growth Medium plus 1 mM dibutyryl cyclic AMP (Sigma). Cells were differentiated for 8 days by replacing differentiation medium every 2-3 days.
FLIPR Calcium Mobilization Assay for L-type Calcium Channel. One day prior to performing this assay, HEK293 cells stably expressing recombinant rat L-type calcium channel (LTCC) subunits (α1c, α2δ, and β1) are trypsinized, then seeded on poly-D-lysine-coated 96-well clear-bottom black plates (Becton Dickinson, Franklin Lakes, N.J.) at 75,000 cells/well. On the day of the assay, the plates are washed with LTCC wash buffer (127 mM NaCl, 2 mM MgCl2, 700 μM NaH2PO4, 5 mM CaCl2, 5 mM NaHCO3, 8 mM HEPES, 10 mM glucose, pH 7.4), then loaded with 0.1 mL of LTCC wash buffer containing Fluo-4 (3 μM final concentration, Molecular Probes, Eugene, Oreg.). After 1 hour, the cells are washed with 0.1 mL LTCC wash buffer and resuspended in 0.05 mL LTCC assay buffer (same composition as LTCC wash buffer). Plates are then transferred to a FLIPR^96 for assay. The FLIPR measures basal Fluo-4 fluorescence for 15 seconds, then adds 0.05 mL of each compound tested diluted in LTCC assay buffer at final concentrations ranging from about 846 pM to about 17 μM. Fluo-4 fluorescence is then measured for 5 minutes. 0.1 mL KCl agonist dissolved in LTCC assay buffer is then added to the cells to produce a final concentration of 90 mM KCl, and fluorescence is measured for another 45 seconds. Data are collected over the entire time course and analyzed using Excel, Graph Pad Prism, or an in-house regression analysis software.
Alternative FLIPR Calcium Mobilization Assay for L-type Calcium Channel. Alternatively, the following cell line and procedure was used for the FLIPR calcium mobilization assay for L-type calcium channel. One day prior to performing this assay, differentiated A7r5 cells were trypsinized, then seeded on tissue culture treated 96-well clear-bottom black plates (Becton Dickinson, Franklin Lakes, N.J.) at a dilution of 1:1 from a confluent T150 cm^2 flask. On the day of the assay, the plates were washed with A7r5 wash buffer (127 mM NaCl, 2 mM MgCl2, 700 μM NaH2PO4, 5 mM CaCl2, 5 mM NaHCO3, 8 mM HEPES, 10 mM glucose, pH 7.4), then loaded with 0.1 mL of A7r5 wash buffer containing Fluo-4 (3 μM final concentration, Molecular Probes, Eugene, Oreg.). After 1 hour, the cells were washed with 0.1 mL A7r5 wash buffer and resuspended in 0.05 mL A7r5 assay buffer that was composed of A7r5 wash buffer plus 50 μM valinomycin (Sigma). Plates were then transferred to a FLIPR^96 for assay. The FLIPR measured basal Fluo-4 fluorescence for 15 seconds, then added 0.05 mL of each compound tested diluted in A7r5 assay buffer at final concentrations ranging from about 846 pM to about 17 μM. Fluo-4 fluorescence was then measured for 5 minutes. 0.1 mL KCl agonist dissolved in A7r5 assay buffer is then added to the cells to produce a final concentration of 90 mM KCl, and fluorescence was measured for another 45 seconds. Data were collected over the entire time course and analyzed using Excel, Graph Pad Prism, or an in-house regression analysis software.
As to `COc1ccc(C(=O)N2CCC3(C=Cc4ccccc43)CC2)cc1C(F)(F)F` [1-(3-trifluoromethyl-4-methoxybenzoyl)-spiro[piperidine-4,1′-indene]], the IC50 came out at 5.74 µM. In the case of `C1=CC2(CCN(CCC=C3c4ccccc4CCc4ccccc43)CC2)c2cccnc21` [1-[2-(10,11-dihydro-5H-dibenzo[a,d]cyclohepten-5-ylmethenyl)ethyl]-spiro[piperidine-4,5′-cyclopenta[b]pyridine]], the IC50 is 3.78 µM. Take `O=C1NC2(CCN(CCCC(c3ccc(F)cc3)c3ccc(F)cc3)CC2)c2ccccc21` [2,3-Dihydro-1′-[4,4-bis(4-fluorophenyl)butyl]-spiro[isoindole-1,4′-piperidine]-3-one]: the IC50 is more than 20 µM.

On to `O=C1OC2(CCN(CCCC(c3ccc(F)cc3)c3ccc(F)cc3)CC2)c2ccccc21` [Compound 12, 1,3-Dihydro-1′-[4,4-bis(4-fluorophenyl)butyl]-spiro[isobenzofuran-1,4′-piperidine]-3-one], for which the IC50 turned out to be 3.95 µM.
